Where two headings read alike, the source gives them in different places.
What was measured:
5HT2C receptors = molecular target: T1, 5HT2C receptors (Homo sapiens, UniProt P28335); test: Human 5-HT2C functional high throughput screening assay in CHO-K1 cells (calcium flux); format: cell-based; parameters: expressed in transfected cells; host or cells: CHO-K1 cells; settings: for EC50: CHO-K1 cells, calcium flux; for Emax: 5-HT2C, maximum functional response as percentage relative to the effect of serotonin
T1 sequence (P28335 33-458): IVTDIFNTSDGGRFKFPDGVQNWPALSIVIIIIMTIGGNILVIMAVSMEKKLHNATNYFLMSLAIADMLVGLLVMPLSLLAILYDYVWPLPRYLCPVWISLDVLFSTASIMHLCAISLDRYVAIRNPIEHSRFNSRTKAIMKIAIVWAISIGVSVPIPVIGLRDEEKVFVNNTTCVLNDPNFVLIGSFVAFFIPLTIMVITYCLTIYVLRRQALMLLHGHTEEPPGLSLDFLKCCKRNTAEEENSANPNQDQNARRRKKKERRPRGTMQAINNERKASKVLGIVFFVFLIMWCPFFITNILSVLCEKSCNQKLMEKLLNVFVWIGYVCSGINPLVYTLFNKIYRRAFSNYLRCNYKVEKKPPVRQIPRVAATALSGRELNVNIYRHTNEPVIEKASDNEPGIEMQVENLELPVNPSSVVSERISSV
Description: (§1) (iii) Human 5-HT2C and 5-HT2B Functional High Throughput Screening Assays in CHO-K1 Cells
(§2) CHO-K1 cells over-expressing 5HT2C or 5HT2B receptors were grown in 1272 cm^2 flasks to 70-80% confluency in UltraCHO media (Lonza, Walkersville, Md.) supplemented with 1% dialyzed fetal bovine serum (FBS), 250 μg/mL zeocin, 100 U/mL penicillin and 100 μg/mL streptomycin, and 400 μg/mL geneticin. The cells were dissociated from the flasks using 0.05% trypsin, resuspended in Recovery™ cell culture freezing medium (Invitrogen, Carlsbad, Calif.) and stored in liquid nitrogen until use. The calcium flux experiments were done using frozen cells. The cells were diluted in media containing 1% dialyzed FBS and 100 U/mL penicillin and 100 μg/mL streptomycin and plated into 384-well poly-D-Lysine coated plates (15,000 cells/well). Then the plates were incubated overnight in a cell incubator at 37° C., 5% CO2. On the next day, the growth media was replaced with media without FBS and further incubated overnight. On day three, the changes in intracellular Ca^2+ were determined using calcium sensitive fluorescent dye, Ca4 (MDS Analytical Technologies, Sunnyvale, Calif.) by loading 15 μL of diluted dye in Hank's Balanced Salt Solution and 20 mM Hepes buffer (pH 7.4) with final concentration of 2.5 mM probenecid into the cells containing media. Then the cells were incubated at room temperature for 60 minutes in dark.
(§3) After incubation, the cell plates were transferred to FLIPR™ (MDS) and their fluorescence measurements were read at an excitation wavelength of 480 nm and an emission wavelength of 530 nm at 25° C. The baseline fluorescence was measured for the first 10 seconds and then 15 μL of 4× concentration of serotonin/test compound was added to the cells. The fluorescence intensity was captured every second for the first 1 minute followed by every 5 seconds for an additional 2 minutes. The increase in fluorescent response by a test compound was normalized to the response of serotonin and used to determine agonist activity. The concentration response of compounds was done from a starting concentration of 10 μM, 1:10 dilution across 6 wells with a final dimethyl sulfoxide concentration of 0.2% and was fitted using a 4-parameter logistic equation. The concentration at which a compound exerts half its maximal effect was named as ‘effective concentration 50’ or ‘EC50’. Emax is the maximum functional response or efficacy expressed as a percentage relative to the effect of serotonin.

5HT2B receptors = molecular target: T2, 5HT2B receptors (Homo sapiens, UniProt P41595); test: Human 5-HT2B functional high throughput screening assay in CHO-K1 cells (calcium flux); format: cell-based; settings: for EC50: CHO-K1 cells, calcium flux
T2 construct: expressed in transfected cells; host or cells: CHO-K1 cells
Description: as §1, §2, §3

[1] = 5-HT2C agonist activity, read-out: EC50
[2] = 5-HT2B agonist activity, read-out: EC50
[3] = CHO-K1, 5-HT2B, maximum functional response as percentage relative to the effect of serotonin, read-out: Emax
[4] = 5-HT2B, maximum functional response as percentage relative to the effect of serotonin

T2 sequence (P41595 whole entry): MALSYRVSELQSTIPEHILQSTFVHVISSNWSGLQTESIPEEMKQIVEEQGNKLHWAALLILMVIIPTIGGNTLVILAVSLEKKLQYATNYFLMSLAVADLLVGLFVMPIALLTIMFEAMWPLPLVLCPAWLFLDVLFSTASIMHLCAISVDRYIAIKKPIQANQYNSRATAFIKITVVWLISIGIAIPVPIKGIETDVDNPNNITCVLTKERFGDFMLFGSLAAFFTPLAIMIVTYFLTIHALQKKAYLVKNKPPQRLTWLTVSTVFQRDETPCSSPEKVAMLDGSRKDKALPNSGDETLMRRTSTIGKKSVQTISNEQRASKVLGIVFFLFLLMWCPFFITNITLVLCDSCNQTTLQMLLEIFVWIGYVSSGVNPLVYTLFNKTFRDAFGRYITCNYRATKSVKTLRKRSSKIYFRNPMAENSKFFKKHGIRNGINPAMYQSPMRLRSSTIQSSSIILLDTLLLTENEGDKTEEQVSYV

Molecule: O=S(=O)(c1ccccc1C(F)(F)F)N1Cc2cccnc2[C@@H]2CNC[C@H]2C1 (relative stereo) [Example 365, Trans-6-{[2-(trifluoromethyl)phenyl]sulfonyl}-5,6,7,7a,8,9,10,10a-octahydropyrido[3,2-c]pyrrolo[3,4-e]azepine]
- EC50 (5HT2C receptors; [1]): 0.5 µM
- Emax (5HT2C receptors; CHO-K1, read-out: Emax): 80%
- EC50 (5HT2B receptors; [2]): 0.8 µM
- Emax (5HT2B receptors; [3]): 30%

Molecule: CN1C[C@H]2CNC(=O)c3cc(-c4ccc(OC(F)(F)F)cc4)ccc3[C@@H]2C1 (relative stereo) [Example 140, Trans-2-methyl-8-(4-(trifluoromethoxy)phenyl)-1,2,3,3a,4,5-hexahydrobenzo[e]pyrrolo[3,4-c]azepin-6(10bH)-one]
- EC50 (5HT2C receptors; [1]): 0.06 µM
- Emax (5HT2C receptors; CHO-K1, read-out: Emax): > 120%
- EC50 (5HT2B receptors; [2]): > 10 µM
- Emax (5HT2B receptors; [4]): inactive

Molecule: COc1ncc(-c2ccc3c(c2)C(=O)NC[C@@H]2CNC[C@@H]32)cn1 (relative stereo) [Example 178, Trans-8-(2-methoxypyrimidin-5-yl)-1,2,3,3a,4,5-hexahydrobenzo[e]pyrrolo[3,4-c]azepin-6(10bH)-one]
- Emax (5HT2C receptors; CHO-K1): > 120%
- EC50 (5HT2C receptors; EC50, 5-HT2C agonist activity): 0.07 µM
- Emax (5HT2B receptors; [4]): inactive
- EC50 (5HT2B receptors; EC50, 5-HT2B agonist activity): > 10 µM

Molecule: CN1C[C@@H]2CCOc3ccccc3[C@H]2C1 [Example 235, (3aR,10bS)-2-Methyl-2,3,3a,4,5,10b-hexahydro-1H-[1]benzoxepino[4,5-c]pyrrole]
- Emax (5HT2C receptors; CHO-K1): 120%
- EC50 (5HT2C receptors; EC50, 5-HT2C agonist activity): 0.04 µM
- Emax (5HT2B receptors; CHO-K1): 45%
- EC50 (5HT2B receptors; EC50, 5-HT2B agonist activity): 0.1 µM

Molecule: O=S(=O)(c1ccccc1F)N1Cc2cccnc2[C@@H]2CNC[C@H]2C1 (relative stereo) [Example 361, Trans-6-[(2-fluorophenyl)sulfonyl]-5,6,7,7a,8,9,10,10a-octahydropyrido[3,2-c]pyrrolo[3,4-e]azepine]
- Emax (5HT2C receptors; CHO-K1): 80%
- EC50 (5HT2C receptors; EC50, 5-HT2C agonist activity): 0.1 µM
- Emax (5HT2B receptors; CHO-K1): 80%
- EC50 (5HT2B receptors; EC50, 5-HT2B agonist activity): 0.3 µM

Molecule: O=C1Cc2ccccc2[C@@H]2CN(Cc3ccccc3)C[C@H]2N1 (relative stereo) [Example 223, Trans-2-benzyl-1,2,3,3a,4,10b-hexahydrobenzo[d]pyrrolo[3,4-b]azepin-5(6H)-one]
- EC50 (5HT2C receptors; [1]): 5 µM
- Emax (5HT2C receptors; CHO-K1, read-out: Emax): 60%
- EC50 (5HT2B receptors; [2]): > 10 µM
- Emax (5HT2B receptors; [4]): inactive

Molecule: CN1C[C@H]2CNC(=O)c3cc(OCc4ccccc4F)ccc3[C@@H]2C1 (relative stereo) [Example 164, Trans-8-(2-fluorobenzyloxy)-2-methyl-1,2,3,3a,4,5-hexahydrobenzo[e]pyrrolo[3,4-c]azepin-6(10bH)-one]
- EC50 (5HT2C receptors; [1]): 0.7 µM
- Emax (5HT2C receptors; CHO-K1, read-out: Emax): 50%
- EC50 (5HT2B receptors; [2]): > 10 µM
- Emax (5HT2B receptors; [4]): inactive

Molecule: CN1C[C@@H]2CNC(=O)c3c(OC(F)(F)F)cccc3[C@H]2C1 [Example 113, (3aS,10bS)-2-Methyl-7-(trifluoromethoxy)-1,2,3,3a,4,5-hexahydrobenzo[c]pyrrolo[3,4-e]azepin-6(10bH)-one]
- Emax (5HT2C receptors; CHO-K1): 120%
- EC50 (5HT2C receptors; EC50, 5-HT2C agonist activity): 0.005 µM
- Emax (5HT2B receptors; CHO-K1): 20%
- EC50 (5HT2B receptors; EC50, 5-HT2B agonist activity): 2 µM

Molecule: Trans-8-(3-chloro-1H-pyrrol-2-yl)-2-methyl-2,3,3a,4,5,10b-hexahydropyrrolo[3,4-d][2]benzazepin-6(1H)-one and Trans-8-(5-chloro-1H-pyrrol-2-yl)-2-methyl-2,3,3a,4,5,10b-hexahydropyrrolo[3,4-d][2]benzazepin-6(1H)-one [Example 386]
- EC50 (5HT2C receptors; [1]): 0.02 µM
- Emax (5HT2C receptors): 65%
- EC50 (5HT2B receptors; [2]): > 10 µM
- Emax (5HT2B receptors; [4]): inactive

Molecule: CC(O)c1cc(-c2ccc3c(c2)C(=O)NC[C@H]2CN(C)C[C@H]32)ccc1F (mixture of isomers) [Example 307, (3aS,10bS)-8-[4-Fluoro-3-(1-hydroxyethyl)phenyl]-2-methyl-2,3,3a,4,5,10b-hexahydropyrrolo[3,4-d][2]benzazepin-6(1H)-one]
- EC50 (5HT2C receptors; [1]): 0.0007 µM
- Emax (5HT2C receptors; CHO-K1, read-out: Emax): 100%
- EC50 (5HT2B receptors; [2]): > 10 µM
- Emax (5HT2B receptors; [4]): inactive

Molecule: O=C1NC[C@@H]2CN(Cc3ccccc3)C[C@H]2c2cccc(OC(F)(F)F)c21 (relative stereo) [Example 102, Trans-2-benzyl-7-(trifluoromethoxy)-1,2,3,3a,4,5-hexahydrobenzo[c]pyrrolo[3,4-e]azepin-6(10bH)-one]
- EC50 (5HT2C receptors; [1]): 0.1 µM
- Emax (5HT2C receptors; CHO-K1, read-out: Emax): > 120%
- EC50 (5HT2B receptors; [2]): > 10 µM
- Emax (5HT2B receptors; [4]): inactive

Molecule: O=S(=O)(c1ccccc1OC(F)(F)F)N1Cc2cccnc2[C@@H]2CNC[C@H]2C1 (relative stereo) [Example 364, Trans-6-{[2-(trifluoromethoxy)phenyl]sulfonyl}-5,6,7,7a,8,9,10,10a-octahydropyrido[3,2-c]pyrrolo[3,4-e]azepine]
- EC50 (5HT2C receptors; [1]): 0.1 µM
- Emax (5HT2C receptors; CHO-K1, read-out: Emax): 85%
- EC50 (5HT2B receptors; [2]): 0.09 µM
- Emax (5HT2B receptors; [3]): 90%

Molecule: Cc1cccc(S(=O)(=O)N2Cc3cccnc3[C@@H]3CNC[C@H]3C2)c1 (relative stereo) [Example 348, Trans-6-[(3-methylphenyl)sulfonyl]-5,6,7,7a,8,9,10,10a-octahydropyrido[3,2-c]pyrrolo[3,4-e]azepine]
- Emax (5HT2C receptors; CHO-K1): 85%
- EC50 (5HT2C receptors; EC50, 5-HT2C agonist activity): 0.07 µM
- Emax (5HT2B receptors; CHO-K1): 50%
- EC50 (5HT2B receptors; EC50, 5-HT2B agonist activity): 0.8 µM

Molecule: CN1C[C@@H]2CCOc3c(-c4cccnc4)cccc3[C@H]2C1 (relative stereo) [Example 370, Trans-2-methyl-7-(pyridin-3-yl)-2,3,3a,4,5,10b-hexahydro-1H-[1]benzoxepino[4,5-c]pyrrole]
- EC50 (5HT2C receptors; [1]): 0.4 µM
- Emax (5HT2C receptors; CHO-K1): 90%
- EC50 (5HT2B receptors; [2]): > 10 µM
- Emax (5HT2B receptors; [4]): inactive

Molecule: CN1C[C@H]2CCN(C)c3ccccc3[C@@H]2C1 (relative stereo) [Example 330, Trans-2,6-dimethyl-1,2,3,3a,4,5,6,10b-octahydropyrrolo[3,4-d][1]benzazepine]
- Emax (5HT2C receptors; CHO-K1): 90%
- EC50 (5HT2C receptors; EC50, 5-HT2C agonist activity): 0.07 µM
- Emax (5HT2B receptors; CHO-K1): 30%
- EC50 (5HT2B receptors; EC50, 5-HT2B agonist activity): 0.3 µM

Molecule: CN1C[C@H]2CNC(=O)c3cc(/C=C/C4CC4)ccc3[C@@H]2C1 (relative stereo) [Example 305, Trans-8-[(E)-2-cyclopropylvinyl]-2-methyl-2,3,3a,4,5,10b-hexahydropyrrolo[3,4-d][2]benzazepin-6(1H)-one]
- Emax (5HT2C receptors; CHO-K1): 90%
- EC50 (5HT2C receptors; EC50, 5-HT2C agonist activity): 0.006 µM
- Emax (5HT2B receptors; [4]): inactive
- EC50 (5HT2B receptors; EC50, 5-HT2B agonist activity): > 10 µM

Molecule: CN1C[C@H]2CNC(=O)c3cccc(F)c3[C@@H]2C1 (relative stereo) [Example 89, Trans-10-fluoro-2-methyl-1,2,3,3a,4,5-hexahydrobenzo[e]pyrrolo[3,4-c]azepin-6(10bH)-one]
- Emax (5HT2C receptors; CHO-K1): > 120%
- EC50 (5HT2C receptors; EC50, 5-HT2C agonist activity): 0.0115 µM
- Emax (5HT2B receptors; CHO-K1): 33%
- EC50 (5HT2B receptors; EC50, 5-HT2B agonist activity): 0.56 µM

Molecule: Trans-8-(2-methoxyphenethoxy)-2-methyl-1,2,3,3a,4,5-hexahydrobenzo[e]pyrrolo[3,4-c]azepin-6(10bH)-one [Example 183]
- EC50 (5HT2C receptors; [1]): 0.04 µM
- Emax (5HT2C receptors): 65%
- EC50 (5HT2B receptors; [2]): > 10 µM
- Emax (5HT2B receptors; [4]): inactive

Molecule: c1ccc(CN2C[C@H]3CCOc4ncccc4[C@@H]3C2)cc1 (relative stereo) [Example 262, Trans-2-benzyl-2,3,3a,4,5,10b-hexahydro-1H-pyrrolo[3′,4′:4,5]oxepino[2,3-b]pyridine]
- EC50 (5HT2C receptors; [1]): 2 µM
- Emax (5HT2C receptors; CHO-K1): 90%
- EC50 (5HT2B receptors; [2]): > 10 µM
- Emax (5HT2B receptors; [4]): inactive

Molecule: c1ccc(CN2C[C@H]3CCNc4ccccc4[C@@H]3C2)cc1 (relative stereo) [Example 254, Trans-2-benzyl-1,2,3,3a,4,5,6,10b-octahydrobenzo[b]pyrrolo[3,4-d]azepine]
- EC50 (5HT2C receptors; [1]): 1 µM
- Emax (5HT2C receptors; CHO-K1, read-out: Emax): 105%
- EC50 (5HT2B receptors; [2]): 0.8 µM
- Emax (5HT2B receptors; [3]): 30%

Source: US8846951B2 (AbbVie Inc., priority 2009, dated 2014)
